Experimental data as given in patent US6924285B2, “Bicyclic heterocyclic compounds, pharmaceutical compositions containing these compounds, their use and process for preparing them” (Boehringer Ingelheim Pharma GmbH & Co., priority 2002, dated 2005).

Tested on: not given
Assay: not given
Conditions: not given

| Structure (SMILES) | melting point [°C] |
| --- | --- |
| Fc1ccc(Nc2ncnc3cc(OCCCN4CCOCC4)c(OC4CCOCC4)cc23)cc1Cl [Example 7, 4-[(3-chloro-4-fluoro-phenyl)amino]-6-(tetrahydropyran-4-yloxy)-7-[3-(morpholin-4-yl)-propyloxy]-quinazoline] | 205 |
| CN(C)C(=O)CN1CCC(Oc2ccc3ncnc(Nc4ccc(F)c(Cl)c4)c3c2)CC1 [Example 10, 4-[(3-chloro-4-fluoro-phenyl)amino]-6-{1-[(dimethylamino)carbonylmethyl]-piperidin-4-yloxy}-quinazoline] | 233 |
| COc1cc2ncnc(Nc3ccc(F)c(Cl)c3)c2cc1OC1CCN(C(=O)N2CCCOCC2)CC1 [Example 12, 4-[(3-chloro-4-fluoro-phenyl)amino]-6-{1-[([1,4]oxazepan-4-yl)carbonyl)-piperidin-4-yloxy}-7-methoxy-quinazoline] | 171 |

Now from value to compound:

| melting point [°C] | Structure (SMILES) |
| --- | --- |
| 251 | COc1cc2ncnc(Nc3ccc(F)c(Cl)c3)c2cc1O[C@H]1CCNC1.Cl.Cl |
| 184 | COc1cc2ncnc(Nc3ccc(F)c(Cl)c3)c2cc1O[C@H]1CCOC1 [Example 1, 4-[(3-chloro-4-fluoro-phenyl)amino]-6-((S)-tetrahydrofuran-3-yloxy)-7-methoxy-quinazoline] |
| 232 | COc1cc2ncnc(Nc3ccc(F)c(Cl)c3)c2cc1O[C@H]1CC[C@@H](N)CC1 [Example 2, 4-[(3-chloro-4-fluoro-phenyl)amino]-6-(cis-4-amino-cyclohexan-1-yloxy)-7-methoxy-quinazoline x Trifluoroacetic Acid] |

Molecular target: T1, human EGF-receptor kinase (Homo sapiens, UniProt P00533)
T1 construct: GST; made in house; host or cells: Sf9 insect cells (baculovirus)
Assay: Inhibition of human EGF-receptor kinase (enzyme assay, ELISA read-out)
Assay type: biochemical
Conditions: cytoplasmic tyrosine kinase domain as GST fusion protein, substrate pEY/bio-pEY, 30 minutes at ambient temperature
Protocol: The inhibition of human EGF-receptor kinase was determined using the cytoplasmic tyrosine kinase domain (methionine 664 to alanine 1186 based on the sequence published in Nature 309 (1984), 418). For this the protein was expressed in Sf9 insect cells as GST fusion protein using the Baculovirus expression system.
The enzyme activity was measured in the presence or absence of the test compounds in serial dilutions. The polymer pEY (4:1) obtained from SIGMA was used as the substrate. Biotinylated pEY (bio-pEY) was added as the tracer substrate. 100 μl of reaction solution contained 10 μl of the inhibitor in 50% DMSO, 20 μl of the substrate solution (200 mM HEPES pH 7.4, 50 mM magnesium acetate, 2.5 mg/ml poly(EY), 5 μg/ml bio-pEY) and 20 μl of enzyme preparation. The enzyme reaction was started by the addition of 50 μl of a 100 μM ATP solution in 10 mM of magnesium chloride. The dilution of the enzyme preparation was adjusted so that the incorporation of phosphate in the bio-pEY was linear in terms of time and quantity of enzyme. The enzyme preparation was diluted in 20 mM HEPES pH 7.4, 1 mM EDTA, 130 mM common salt, 0.05% Triton X-100, 1 mM DTT and 10% glycerol.
The enzyme assays were carried out at ambient temperature over a period of 30 minutes and ended by the addition of 50 μl of a stopping solution (250 mM EDTA in 20 mM HEPES pH 7.4). 100 μl were placed on a streptavidine-coated microtitre plate and incubated for 60 minutes at ambient temperature. Then the plate was washed with 200 μl of a wash solution (50 mM Tris, 0.05% Tween 20). After the addition of 100 μl of an HRPO-labelled anti-PY antibody (PY20H Anti-PTyr:HRP made by Transduction Laboratories, 250 ng/ml) the preparation was incubated for 60 minutes. Then the microtitre plate was washed three times with 200 μl of wash solution. The samples were then combined with 100 μl of a TMB-peroxidase solution (A:B=1:1, Kirkegaard Perry Laboratories). After 10 minutes the reaction was stopped. The extinction was measured at OD450 nm with an ELISA reader. All the results were measured three times.
The data were adapted by iterative calculation using an analytical pogramme for sigmoidal curves (Graph Pad Prism Version 3.0) with a variable Hill pitch. […] The active substance concentration which inhibits the activity of EGF receptor kinase by 50% (IC50) was derived from the curves.

T1 sequence (P00533 688-1210): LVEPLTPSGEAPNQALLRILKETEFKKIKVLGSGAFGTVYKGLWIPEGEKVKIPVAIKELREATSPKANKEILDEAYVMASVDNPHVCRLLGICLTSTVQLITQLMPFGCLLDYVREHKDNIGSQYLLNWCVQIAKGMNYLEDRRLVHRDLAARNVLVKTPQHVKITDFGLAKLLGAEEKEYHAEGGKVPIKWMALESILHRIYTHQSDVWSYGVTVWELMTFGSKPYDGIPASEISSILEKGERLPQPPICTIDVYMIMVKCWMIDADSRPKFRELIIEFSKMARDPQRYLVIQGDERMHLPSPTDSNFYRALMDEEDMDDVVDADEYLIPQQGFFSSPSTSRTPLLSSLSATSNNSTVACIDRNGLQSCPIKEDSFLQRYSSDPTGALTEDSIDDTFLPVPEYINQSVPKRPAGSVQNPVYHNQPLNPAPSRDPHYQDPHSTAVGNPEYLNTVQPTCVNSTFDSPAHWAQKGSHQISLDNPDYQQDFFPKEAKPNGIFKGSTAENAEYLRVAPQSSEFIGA

| Structure (SMILES) | IC50 [pM] |
| --- | --- |
| COc1cc2ncnc(Nc3ccc(F)c(Cl)c3)c2cc1O[C@H]1CC[C@@H](NC(=O)OC(C)(C)C)CC1 [1(2), 4-[(3-chloro-4-fluoro-phenyl)amino]-6-[cis-4-(tert.-butyloxycarbonylamino)-cyclohexan-1-yloxy]-7-methoxy-quinazoline] | 2000 |
| COc1cc2ncnc(Nc3ccc(F)c(Cl)c3)c2cc1O[C@H]1CC[C@H](NC(=O)OC(C)(C)C)CC1 [1(4), 4-[(3-chloro-4-fluoro-phenyl)amino]-6-[trans-4-(tert.-butyloxycarbonylamino)-cyclohexan-1-yloxy]-7-methoxy-quinazoline] | 600 |
| COc1cc2ncnc(Nc3ccc(F)c(Cl)c3)c2cc1OC1CCN(C(=O)OC(C)(C)C)CC1 [1(5), 4-[(3-chloro-4-fluoro-phenyl)amino]-6-[1-(tert.-butyloxycarbonyl)-piperidin-4-yloxy]-7-methoxy-quinazoline] | 600 |
| COc1cc2ncnc(Nc3ccc(F)c(Cl)c3)c2cc1OC1CCN(CCNC(C)=O)CC1 [3(15), 4-[(3-chloro-4-fluoro-phenyl)amino]-6-[1-(2-acetylamino-ethyl)-piperidin-4-yloxy]-7-methoxy-quinazoline] | 1000 |
| COc1cc2ncnc(Nc3ccc(F)c(Cl)c3)c2cc1O[C@H]1CC[C@H](NS(=O)(=O)N(C)C)CC1 [3(16), 4-[(3-chloro-4-fluoro-phenyl)amino]-6-{trans-4-[(dimethylamino)sulphonylamino]-cyclohexan-1-yloxy}-7-methoxy-quinazoline] | 1000 |
| COc1cc2ncnc(Nc3ccc(F)c(Cl)c3)c2cc1O[C@H]1CC[C@H](NC(=O)N2CCOCC2)CC1 [3(17), 4-[(3-chloro-4-fluoro-phenyl)amino]-6-{trans-4-[(morpholin-4-yl)carbonylamino]-cyclohexan-1-yloxy}-7-methoxy-quinazoline] | 300 |
| COc1cc2ncnc(Nc3ccc(F)c(Cl)c3)c2cc1O[C@H]1CC[C@H](NS(=O)(=O)N2CCOCC2)CC1 [3(18), 4-[(3-chloro-4-fluoro-phenyl)amino]-6-{trans-4-[(morpholin-4-yl)sulphonylamino]-cyclohexan-1-yloxy}-7-methoxy-quinazoline] | 400 |
| COc1cc2ncnc(Nc3ccc(F)c(Cl)c3)c2cc1O[C@H]1CC[C@H](NS(=O)(=O)CCCN2CCOCC2)CC1 [4(1), 4-[(3-chloro-4-fluoro-phenyl)amino]-6-(trans-4-{[3-(morpholin-4-yl)-propyl]sulphonylamino}-cyclohexan-1-yloxy)-7-methoxy-quinazoline] | 160 |
| COc1cc2ncnc(Nc3ccc(F)c(Cl)c3)c2cc1O[C@H]1CC[C@@H](NS(=O)(=O)CCCN2CCOCC2)CC1 [Example 4, 4-[(3-chloro-4-fluoro-phenyl)amino]-6-(cis-4-{[3-(morpholin-4-yl)-propyl]sulphonylamino}-cyclohexan-1-yloxy)-7-methoxy-quinazoline] | 410 |

Continued, values first:

| IC50 [pM] | Structure (SMILES) |
| --- | --- |
| 120 | COc1cc2ncnc(Nc3ccc(F)c(Cl)c3)c2cc1OC1CCOCC1 [1(1), 4-[(3-chloro-4-fluoro-phenyl)amino]-6-(tetrahydropyran-4-yloxy)-7-methoxy-quinazoline] |
| 1100 | COc1cc2ncnc(Nc3ccc(F)c(Cl)c3)c2cc1O[C@@H]1CCOC1 [1(3), 4-[(3-chloro-4-fluoro-phenyl)amino]-6-((R)-tetrahydrofuran-3-yloxy)-7-methoxy-quinazoline] |
| 690 | COc1cc2ncnc(Nc3ccc(F)c(Cl)c3)c2cc1OC1CCCOC1 (stereo not drawn) [1(6), 4-[(3-chloro-4-fluoro-phenyl)amino]-6-(tetrahydropyran-3-yloxy)-7-methoxy-quinazoline] |
| 160 | COc1cc2ncnc(Nc3ccc(F)c(Cl)c3)c2cc1O[C@H]1CC[C@H](N)CC1 [2(1), 4-[(3-chloro-4-fluoro-phenyl)amino]-6-(trans-4-amino-cyclohexan-1-yloxy)-7-methoxy-quinazoline] |
| 140 | COc1cc2ncnc(Nc3ccc(F)c(Cl)c3)c2cc1O[C@H]1CC[C@H](NS(C)(=O)=O)CC1 [3(1), 4-[(3-chloro-4-fluoro-phenyl)amino]-6-(trans-4-methanesulphonylamino-cyclohexan-1-yloxy)-7-methoxy-quinazoline] |
| 220 | COc1cc2ncnc(Nc3ccc(F)c(Cl)c3)c2cc1OC1CCN(S(C)(=O)=O)CC1 [3(2), 4-[(3-chloro-4-fluoro-phenyl)amino]-6-(1-methanesulphonyl-piperidin-4-yloxy)-7-methoxy-quinazoline] |
| 700 | COc1cc2ncnc(Nc3ccc(F)c(Cl)c3)c2cc1OC1CCN(C(=O)N2CCOCC2)CC1 [3(7), 4-[(3-chloro-4-fluoro-phenyl)amino]-6-{1-[(morpholin-4-yl)carbonyl]-piperidin-4-yloxy}-7-methoxy-quinazoline] |
| 600 | COCC(=O)N1CCC(Oc2cc3c(Nc4ccc(F)c(Cl)c4)ncnc3cc2OC)CC1 [3(8), 4-[(3-chloro-4-fluoro-phenyl)amino]-6-{1-[(methoxymethyl)carbonyl]-piperidin-4-yloxy}-7-methoxy-quinazoline] |
| 200 | COc1cc2ncnc(Nc3ccc(F)c(Cl)c3)c2cc1OC1CCN(C#N)CC1 [3(9), 4-[(3-chloro-4-fluoro-phenyl)amino]-6-(1-cyano-piperidin-4-yloxy)-7-methoxy-quinazoline] |
| 100 | COc1cc2ncnc(Nc3ccc(F)c(Cl)c3)c2cc1OC1CCN(S(=O)(=O)N2CCOCC2)CC1 [3(11), 4-[(3-chloro-4-fluoro-phenyl)amino]-6-{1-[(morpholin-4-yl)sulphonyl]-piperidin-4-yloxy}-7-methoxy-quinazoline] |
| 1000 | CC(=O)NCCOc1cc2ncnc(Nc3ccc(F)c(Cl)c3)c2cc1OC1CCOCC1 [3(20), 4-[(3-chloro-4-fluoro-phenyl)amino]-6-(tetrahydropyran-4-yloxy)-7-(2-acetylamino-ethoxy)-quinazoline] |
| 400 | CS(=O)(=O)NCCOc1cc2ncnc(Nc3ccc(F)c(Cl)c3)c2cc1OC1CCOCC1 [3(21), 4-[(3-chloro-4-fluoro-phenyl)amino]-6-(tetrahydropyran-4-yloxy)-7-(2-methanesulphonylamino-ethoxy)-quinazoline] |
| 1000 | COCCOc1cc2ncnc(Nc3ccc(F)c(Cl)c3)c2cc1OC1CCOCC1 [7(5), 4-[(3-chloro-4-fluoro-phenyl)amino]-6-(tetrahydropyran-4-yloxy)-7-(2-methoxy-ethoxy)-quinazoline] |
| 220 | COc1cc2ncnc(Nc3ccc(F)c(Cl)c3)c2cc1OC1CCNCC1 [Example 2(2), 4-[(3-chloro-4-fluoro-phenyl)amino]-6-(piperidin-4-yloxy)-7-methoxy-quinazoline x trifluoroacetic acid] |
| 4500 | COc1cc2ncnc(Nc3ccc(F)c(Cl)c3)c2cc1O[C@H]1CC[C@@H](N)CC1 [Example 2, 4-[(3-chloro-4-fluoro-phenyl)amino]-6-(cis-4-amino-cyclohexan-1-yloxy)-7-methoxy-quinazoline x Trifluoroacetic Acid] |
